The results in this text go back to US8222202B2 (priority 2006, dated 2012).

Like-named read-outs stand apart in the source and are kept apart here. Starred links: 1 amine or outer side, 2 acyl side, 3 side chain; linkers in the order of their positions; H or OH if unused. Positions of bridges follow the written chain, without caps; N, C: chain ends. Non-standard residues stand in square brackets, D forms with d. Residues, ends and D or L forms follow the SMILES beside them. *: point of attachment. X3 = CC(C)CCNCCC[C@H](N[*:1])C(=O)[*:2]; Ala(2-furyl) = N[C@@H](Cc1ccco1)C(=O)O; Orn(iPr) = CC(C)NCCC[C@H](N)C(=O)O; Dab(iPr) = CC(C)NCC[C@H](N)C(=O)O; 4Pal = N[C@@H](Cc1ccncc1)C(=O)O; 2Thi = N[C@@H](Cc1cccs1)C(=O)O; 3Thi = N[C@@H](Cc1ccsc1)C(=O)O; Aad = N[C@@H](CCCC(=O)O)C(=O)O; NHCH(CH2OH)2 = OCC(CO)N*; Orn = NCCC[C@H](N)C(=O)O; Dab = NCC[C@H](N)C(=O)O; X4 = OCCOCCN*; NHOH = ON*

In assay [1] the test system is anaesthetised Sprague-Dawley male rats. Description: in vivo duration of action, blood pressure test in anaesthetised rats. Conditions: ratio of decay rate of diastolic blood pressure response, AVP 0.1 nmol/kg i.v. to equieffective dose of compound; dibenamine-pretreated rats. On the set-up: species or system rat.
Description: Blood pressure tests were carried out on anaesthetised Sprague-Dawley male rats (weighing 270-300 g) with catheterised jugular vein and carotid artery. The catheterised carotid artery was used to continuously monitor blood pressure and the jugular vein was used for administration of the compounds tested. Rats received intravenous injections of dibenamine prior to dosing to enhance their responsiveness to V1a receptor agonists (cf. Dekanski, J., Br. J. Pharmacol. 1952, 7, 567-572). […] Dosing intervals were set as time for the blood pressure to decrease to a stable baseline.
Determination of duration of action was based on the decay rate of diastolic arterial blood pressure transient increase. Specifically, for an exponential decay of plasma concentration, it can be shown that, if the response is measured beyond the distribution phase, the rate of decay near the EC50 is linear and inversely proportional to the elimination half-life (Rowland, M. and Tozer, T. in “Clinical Pharmacokinetics, Concepts and Applications”, 3rd ed., Lippincott Williams & Wilkins, Philadelphia, 1995).
Assay [2] concerns the target T1, human oxytocin (hOT) receptor (Homo sapiens, UniProt P30559).
T1 construct: expressed in transfected cells
T1 sequence (P30559 1-389): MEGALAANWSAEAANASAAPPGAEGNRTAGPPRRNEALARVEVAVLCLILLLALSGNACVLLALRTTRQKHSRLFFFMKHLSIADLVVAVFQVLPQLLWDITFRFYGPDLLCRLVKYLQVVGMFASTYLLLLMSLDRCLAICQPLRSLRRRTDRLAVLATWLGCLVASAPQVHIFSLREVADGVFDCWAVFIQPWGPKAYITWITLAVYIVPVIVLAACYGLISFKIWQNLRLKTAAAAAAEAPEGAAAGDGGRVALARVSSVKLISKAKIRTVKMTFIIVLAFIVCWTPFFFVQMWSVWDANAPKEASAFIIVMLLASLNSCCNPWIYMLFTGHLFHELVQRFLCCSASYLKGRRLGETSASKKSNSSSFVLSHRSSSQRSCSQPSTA
Description: luciferase-based transcriptional reporter assay, selectivity hOT versus hV1a. The assay is classed as cell-based. As to the method: (§1) Agonist activity of compounds on the hV1a receptor was determined in a transcriptional reporter assay by transiently transfecting a hV1a receptor expression DNA into HEK-293 cells in concert with a reporter DNA containing intracellular calcium responsive promoter elements regulating expression of firefly luciferase. See Boss, V., Talpade, D. J., Murphy, T. J. J. Biol. Chem. 1996, May 3; 271(18), 10429-10432 for further guidance on this assay. […] To determine selectivity, compounds were tested in luciferase-based transcriptional reporter assays expressing the human oxytocin (hOT) receptor. Assays for other receptors (hV2, hV1b, rat V1a and rat V2) were also conducted.
(§2) The EC50 value given is the geometric mean expressed in nanomol/L (nM). Selectivity values are given as EC50 ratios.
(In general: Reporter assays use an easily measured gene product as a stand-in for the process of interest.)

For another assay, the target named is T2, hV1a receptor (Homo sapiens, UniProt P37288).
T2 construct: expressed in transfected cells; host or cells: HEK-293
T2 sequence (P37288 whole entry): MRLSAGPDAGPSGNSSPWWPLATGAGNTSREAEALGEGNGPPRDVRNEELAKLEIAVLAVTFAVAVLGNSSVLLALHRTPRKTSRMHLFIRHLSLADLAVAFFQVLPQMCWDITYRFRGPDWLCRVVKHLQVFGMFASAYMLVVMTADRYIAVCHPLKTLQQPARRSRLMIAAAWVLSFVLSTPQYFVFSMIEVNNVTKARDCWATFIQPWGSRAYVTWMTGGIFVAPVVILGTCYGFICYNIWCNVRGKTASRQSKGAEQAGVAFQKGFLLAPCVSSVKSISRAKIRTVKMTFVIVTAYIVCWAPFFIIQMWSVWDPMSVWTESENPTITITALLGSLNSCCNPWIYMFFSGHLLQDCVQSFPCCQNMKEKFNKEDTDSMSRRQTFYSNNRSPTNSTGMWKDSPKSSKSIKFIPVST
Nature of the assay: hV1a receptor transcriptional reporter (luciferase) agonist assay. The assay is classed as cell-based. As to the method:
as §1, §2

Where [3] appears, read: class symbol, agonist efficacy at hOT receptor compared to AVP.
[4] abbreviates: HEK-293 cells transiently transfected with hV1a receptor, 5 hours exposure, geometric mean, read-out: EC50 hV1a receptor.

Consider `CC[C@H](C)[C@@H]1NC(=O)[C@H](Cc2ccccc2)NC(=O)[C@@H](N)CSSC[C@@H](C(=O)N2CCC[C@H]2C(=O)N[C@@H](CCCNC(C)C)C(=O)NCC(N)=O)NC(=O)[C@H](CC(N)=O)NC(=O)[C@H](CCCC(N)=O)NC1=O` [Compound 1, [Phe^2,Hgn^4,Orn(i-Pr)^8]VT] (H-CFI[Aad](NH2)NCP[Orn(iPr)]G-NH2; disulfide 1-6; N-terminus and C-terminus assumed), for which the “in vivo duration relative to AVP” value in assay [1] is 1.7. For the same compound, the “selectivity hOT/hV1a” value in assay [2] (setting [3]) was “+ (selective hV1a receptor agonist; EC50 hOT/hV1a ratio not determined due to very low agonist efficacy (<30% compared to AVP) at the hOT receptor)”.

On to `CC[C@H](C)[C@@H]1NC(=O)[C@H](Cc2ccncc2)NC(=O)[C@@H](N)CSSC[C@@H](C(=O)N2CCC[C@H]2C(=O)N[C@@H](CCN)C(=O)NCC(N)=O)NC(=O)[C@H](CC(N)=O)NC(=O)[C@H](CCC(N)=O)NC1=O` [Compound 12] (H-C[4Pal]IQNCP[Dab]G-NH2; disulfide 1-6), for which a half-maximal effect on hV1a receptor (EC50) was put at 25 nM. Further, in assay [2], the “selectivity hOT/hV1a” value is “+ (key: +: selective hV1a receptor agonist; EC50 hOT/hV1a ratio not determined due to very low agonist efficacy (<30% compared to AVP) at the hOT receptor)”.

Take “[Phe2,Orn8]OT [[Phe2, Orn8]OT, reference compound]”: in assay [1], the “in vivo duration relative to AVP” value was 1.9. Also, the “selectivity hOT/hV1a” value in assay [2] (EC50 ratio) is listed as 60.

On hV1a receptor, `CC[C@H](C)[C@@H]1NC(=O)[C@H](Cc2ccco2)NC(=O)[C@@H](N)CSSC[C@@H](C(=O)N2CCC[C@H]2C(=O)N[C@@H](CCCNC(C)C)C(=O)NCC(N)=O)NC(=O)[C@H](CC(N)=O)NC(=O)[C@H](CC(N)=O)NC1=O` [Compound 42] (H-C[Ala(2-furyl)]INNCP[Orn(iPr)]G-NH2; disulfide 1-6) registered an EC50 of 6.25 nM. Further, the “selectivity hOT/hV1a” value in assay [2] was “+ (key: +: selective hV1a receptor agonist; EC50 hOT/hV1a ratio not determined due to very low agonist efficacy (<30% compared to AVP) at the hOT receptor)”.

As for `CC[C@H](C)[C@@H]1NC(=O)[C@H](Cc2ccco2)NC(=O)[C@@H](N)CSSC[C@@H](C(=O)N2CCC[C@H]2C(=O)N[C@@H](CCCN)C(=O)NCC(N)=O)NC(=O)[C@H](CC(N)=O)NC(=O)[C@H](CCC(N)=O)NC1=O` [Compound 32] (H-C[Ala(2-furyl)]IQNCP[Orn]G-NH2; disulfide 1-6), the “in vivo duration relative to AVP” value in assay [1] is given as 2.1.

Consider `CC[C@H](C)[C@@H]1NC(=O)[C@H](Cc2ccccc2)NC(=O)[C@@H](N)CSSC[C@@H](C(=O)N2CCC[C@H]2C(=O)N[C@@H](CCCNCCC(C)C)C(=O)NCC(N)=O)NC(=O)[C@H](CC(N)=O)NC(=O)[C@H](CCC(N)=O)NC1=O` [Compound 45] (H-CFIQNCP[X3]G-NH2; disulfide 1-6; N-terminus and C-terminus assumed), for which the EC50 on hV1a receptor stood at 1.65 nM. Moreover, the “selectivity hOT/hV1a” value in assay [2] (EC50 ratio) is given as 18.

Consider `CC[C@H](C)[C@@H]1NC(=O)[C@H](Cc2cccs2)NC(=O)[C@@H](N)CSSC[C@@H](C(=O)N2CCC[C@H]2C(=O)N[C@@H](CCN)C(=O)NCC(N)=O)NC(=O)[C@H](CC(N)=O)NC(=O)[C@H](CCC(N)=O)NC1=O` [Compound 14] (H-C[2Thi]IQNCP[Dab]G-NH2; disulfide 1-6), for which, on hV1a receptor (setting [4]), the EC50 was 0.54 nM. In addition, the “selectivity hOT/hV1a” value in assay [2] (EC50 ratio) worked out at 75.

On to `CC[C@H](C)[C@@H]1NC(=O)[C@H](Cc2ccccc2)NC(=O)[C@@H](N)CSSC[C@@H](C(=O)N2CCC[C@H]2C(=O)N[C@@H](CCN)C(=O)NCC(N)=O)NC(=O)[C@H](CC(N)=O)NC(=O)[C@H](CCC(N)=O)NC1=O` [Compound 8] (H-CFIQNCP[Dab]G-NH2; disulfide 1-6; N-terminus and C-terminus assumed), for which the EC50 on hV1a receptor (setting [4]) turned out to be 0.5 nM. Moreover, the “selectivity hOT/hV1a” value in assay [2] (EC50 ratio) worked out at 11.

Regarding `CC[C@H](C)[C@@H]1NC(=O)[C@H](Cc2ccccc2)NC(=O)[C@@H](N)CSSC[C@@H](C(=O)N2CCC[C@H]2C(=O)N[C@@H](CCCN)C(=O)NCC(N)=O)NC(=O)[C@H](CC(N)=O)NC(=O)[C@H](CC(=O)NCCOCCO)NC1=O` [Compound 29] (H-CFID(X4)NCP[Orn]G-NH2; disulfide 1-6; N-terminus and C-terminus assumed), the concentration for a half-maximal effect (EC50) at hV1a receptor (setting [4]) was 4.77 nM. In addition, the “selectivity hOT/hV1a” value in assay [2] (setting [3]) was “+ (selective hV1a receptor agonist; EC50 hOT/hV1a ratio not determined due to very low agonist efficacy (<30% compared to AVP) at the hOT receptor)”.

`CC[C@H](C)[C@@H]1NC(=O)[C@H](Cc2ccsc2)NC(=O)[C@@H](N)CSSC[C@@H](C(=O)N2CCC[C@H]2C(=O)N[C@@H](CCCN)C(=O)NCC(N)=O)NC(=O)[C@H](CC(N)=O)NC(=O)[C@H](CC(N)=O)NC1=O` [Compound 35] (H-C[3Thi]INNCP[Orn]G-NH2; disulfide 1-6): the EC50 at hV1a receptor (setting [4]) came to 7.3 nM. Also, the “selectivity hOT/hV1a” value in assay [2] (setting [3]) is “+ (selective hV1a receptor agonist; EC50 hOT/hV1a ratio not determined due to very low agonist efficacy (<30% compared to AVP) at the hOT receptor)”.

On to `CC[C@H](C)[C@@H]1NC(=O)[C@H](Cc2ccsc2)NC(=O)[C@@H](N)CSSC[C@@H](C(=O)N2CCC[C@H]2C(=O)N[C@@H](CCN)C(=O)NCC(N)=O)NC(=O)[C@H](CC(N)=O)NC(=O)[C@H](CC(N)=O)NC1=O` [Compound 37] (H-C[3Thi]INNCP[Dab]G-NH2; disulfide 1-6; N-terminus and C-terminus assumed), for which, at hV1a receptor (setting [4]), the EC50 came to 7.45 nM. Also, the “selectivity hOT/hV1a” value in assay [2] (setting [3]) is reported as “+ (selective hV1a receptor agonist; EC50 hOT/hV1a ratio not determined due to very low agonist efficacy (<30% compared to AVP) at the hOT receptor)”.

In the case of `CC[C@H](C)[C@@H]1NC(=O)[C@H](Cc2ccccc2)NC(=O)[C@@H](N)CSSC[C@@H](C(=O)N2CCC[C@H]2C(=O)N[C@@H](CCCN)C(=O)NCC(N)=O)NC(=O)[C@H](CC(N)=O)NC(=O)[C@H](CC(=O)NC(CO)CO)NC1=O` [Compound 27] (H-CFID(NHCH(CH2OH)2)NCP[Orn]G-NH2; disulfide 1-6; N-terminus and C-terminus assumed), on hV1a receptor (setting [4]), the EC50 worked out at 16.2 nM. Also, in assay [2] (setting [3]), the “selectivity hOT/hV1a” value was “+ (selective hV1a receptor agonist; EC50 hOT/hV1a ratio not determined due to very low agonist efficacy (<30% compared to AVP) at the hOT receptor)”.

Consider `CC[C@H](C)[C@@H]1NC(=O)[C@H](Cc2ccccc2)NC(=O)[C@@H](N)CSSC[C@@H](C(=O)N2CCC[C@H]2C(=O)N[C@@H](CCNC(C)C)C(=O)NCC(N)=O)NC(=O)[C@H](CC(N)=O)NC(=O)[C@H](CCCC(N)=O)NC1=O` [Compound 22] (H-CFI[Aad](NH2)NCP[Dab(iPr)]G-NH2; disulfide 1-6; N-terminus and C-terminus assumed), for which the EC50 on hV1a receptor (setting [4]) is 18.1 nM. Moreover, the “selectivity hOT/hV1a” value in assay [2] (setting [3]) was “+ (selective hV1a receptor agonist; EC50 hOT/hV1a ratio not determined due to very low agonist efficacy (<30% compared to AVP) at the hOT receptor)”.

`CC[C@H](C)[C@@H]1NC(=O)[C@H](Cc2ccccc2)NC(=O)[C@@H](N)CSSC[C@@H](C(=O)N2CCC[C@H]2C(=O)N[C@@H](CCN)C(=O)NCC(N)=O)NC(=O)[C@H](CC(N)=O)NC(=O)[C@H](CC(=O)NC)NC1=O` [Compound 31] (H-CFID(NHMe)NCP[Dab]G-NH2; disulfide 1-6; N-terminus and C-terminus assumed): at hV1a receptor (setting [4]), the EC50 is 3.91 nM. Moreover, the “selectivity hOT/hV1a” value in assay [2] (setting [3]) is “+ (selective hV1a receptor agonist; EC50 hOT/hV1a ratio not determined due to very low agonist efficacy (<30% compared to AVP) at the hOT receptor)”.

On to `CCNC(=O)C[C@@H]1NC(=O)[C@H]([C@@H](C)CC)NC(=O)[C@H](Cc2ccccc2)NC(=O)[C@@H](N)CSSC[C@@H](C(=O)N2CCC[C@H]2C(=O)N[C@@H](CCN)C(=O)NCC(N)=O)NC(=O)[C@H](CC(N)=O)NC1=O` [Compound 4, [Phe^2,Asn(Et)^4, Dbu^8]VT] (H-CFID(NHEt)NCP[Dab]G-NH2; disulfide 1-6; N-terminus and C-terminus assumed), for which the “in vivo duration relative to AVP” value in assay [1] turned out to be 1.8. The “selectivity hOT/hV1a” value in assay [2] (setting [3]) was “+ (selective hV1a receptor agonist; EC50 hOT/hV1a ratio not determined due to very low agonist efficacy (<30% compared to AVP) at the hOT receptor)”.

As for `CC[C@H](C)[C@@H]1NC(=O)[C@H](Cc2ccccc2)NC(=O)[C@@H](N)CSSC[C@@H](C(=O)N2CCC[C@H]2C(=O)N[C@@H](CCCN)C(=O)NCC(N)=O)NC(=O)[C@H](CC(N)=O)NC(=O)[C@H](CCC(=O)NO)NC1=O` [Compound 16] (H-CFIE(NHOH)NCP[Orn]G-NH2; disulfide 1-6; N-terminus and C-terminus assumed), the EC50 on hV1a receptor (setting [4]) came out at 11.9 nM. Further, in assay [2] (setting [3]), the “selectivity hOT/hV1a” value is listed as “+ (selective hV1a receptor agonist; EC50 hOT/hV1a ratio not determined due to very low agonist efficacy (<30% compared to AVP) at the hOT receptor)”.

What is called EC50 is the concentration giving half of the maximal effect.
